{"source": "patent US11795171B2", "about": "“Pyrrolotriazinones and imidazotriazinones as ubiquitin-specific protease 7 inhibitors” (Valo Health, Inc., priority 2014, dated 2023)", "data": [{"molecular_target": "USP7 (Homo sapiens (Human), UniProt Q93009)", "sequence (Q93009 208-1102)": "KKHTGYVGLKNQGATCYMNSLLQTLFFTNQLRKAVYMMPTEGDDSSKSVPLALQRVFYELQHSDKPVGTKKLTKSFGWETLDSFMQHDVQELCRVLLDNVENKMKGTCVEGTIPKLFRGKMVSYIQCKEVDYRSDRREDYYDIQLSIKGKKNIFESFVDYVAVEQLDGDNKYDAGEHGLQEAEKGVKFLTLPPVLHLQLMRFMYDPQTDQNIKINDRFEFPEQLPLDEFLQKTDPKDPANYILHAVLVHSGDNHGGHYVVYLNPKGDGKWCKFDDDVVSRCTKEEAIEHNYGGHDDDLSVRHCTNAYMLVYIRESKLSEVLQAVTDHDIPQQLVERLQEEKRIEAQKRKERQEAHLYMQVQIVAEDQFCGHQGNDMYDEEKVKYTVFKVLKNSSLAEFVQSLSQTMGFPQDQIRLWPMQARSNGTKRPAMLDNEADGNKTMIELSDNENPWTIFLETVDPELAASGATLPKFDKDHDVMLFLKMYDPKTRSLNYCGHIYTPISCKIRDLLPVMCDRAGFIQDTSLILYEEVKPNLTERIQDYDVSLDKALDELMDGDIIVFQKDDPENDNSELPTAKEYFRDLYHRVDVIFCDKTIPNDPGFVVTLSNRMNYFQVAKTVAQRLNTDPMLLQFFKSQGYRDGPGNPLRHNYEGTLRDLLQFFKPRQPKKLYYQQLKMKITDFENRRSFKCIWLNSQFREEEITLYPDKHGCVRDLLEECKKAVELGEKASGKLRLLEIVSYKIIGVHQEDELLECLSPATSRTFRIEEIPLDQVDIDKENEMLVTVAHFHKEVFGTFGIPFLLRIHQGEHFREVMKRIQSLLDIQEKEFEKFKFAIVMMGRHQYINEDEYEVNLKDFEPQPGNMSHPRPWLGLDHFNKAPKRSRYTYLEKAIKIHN", "experiment": "USP7 Assay B (Ubitquin-Rhodamine110 Assay)", "type": "biochemical", "settings": "Ub-Rh110 substrate 25 nM", "experimental": "Stock compound solutions were stored at −20° C. as 10 mM in DMSO. […] Prestamped assay plates were allowed to come to room temperature on the day of the assay. For the screen, 100 nL of 2 mM was pre-dispensed for a final screening concentration of 10 μM (DMSO(fc)=0.5%). […] Unless otherwise indicated, all follow-up assays were run on triplecate plates. […] Pre-stamped with compounds were either not preincubated or preincubated with USP7 between 30 to 120 minutes prior to the addition of 10 μL of 2×Ub-Rh110 to compound plates. Plates were incubated stacked for either 23 or 45 minutes at room temperature before fluorescence was read on the Envision (Excitation at 485 nm and Emission at 535 nm; Perkin Elmer) or on the PheraSTAR (Excitation at 485 nm and Emission at 535 nm; BMG Labtech).\nData from USP7 Assays A and B were reported as percent inhibition (inh) compared with control wells based on the following equation: % inh=1−((FLU−AveLow)/(AveHigh−AveLow)) where FLU=measured Fluorescence (See Tables 2 and 3). AveLow=average Fluorescence of no enzyme control (n=16). AveHigh=average Fluorescence of DMSO control (n=16). IC50 values were determined by curve fitting of the standard 4 parameter logistic fitting algorithm included in the Activity Base software package: IDBS XE Designer Model205. Data is fitted using the Levenburg Marquardt algorithm.", "units": {"IC50": "µM"}, "values": [{"compound": "3-((1-(3-(1H-pyrazol-1-yl)butanoyl)-4-hydroxypiperidin-4-yl)methyl)pyrrolo[2,1-f][1,2,4]triazin-4(3H)-one [Compound I-34]", "IC50": "> 10"}, {"compound": "3-((4-hydroxy-1-(3-phenylbutanoyl)piperidin-4-yl)methyl)-6-methylpyrrolo[2,1-f][1,2,4]triazin-4(3H)-one [Compound I-83]", "IC50": "1 to 10"}, {"compound": "CC(CC(=O)N1CCC(O)(Cn2cnn3cccc3c2=O)CC1)c1ccccc1", "note": "(stereo not shown) [Compound I-1, 3-((4-hydroxy-1-(3-phenylbutanoyl)piperidin-4-yl)methyl)pyrrolo[2,1-f][1,2,4]triazin-4(3H)-one]", "IC50": "0.2 to 1"}, {"compound": "O=C(c1ccccc1-c1ccccc1)N1CCC(O)(Cn2cnn3cccc3c2=O)CC1", "note": "[Compound I-2, 3-((1-([1,1′-biphenyl]-2-carbonyl)-4-hydroxypiperidin-4-yl)methyl)pyrrolo[2,1-f][1,2,4]triazin-4(3H)-one]", "IC50": "> 10"}, {"compound": "O=C(c1ccccc1-c1ccsc1)N1CCC(O)(Cn2cnn3cccc3c2=O)CC1", "note": "[Compound I-3, 3-((4-hydroxy-1-(2-(thiophen-3-yl)benzoyl)piperidin-4-yl)methyl)pyrrolo[2,1-f][1,2,4]triazin-4(3H)-one]", "IC50": "> 10"}, {"compound": "O=C(c1ccccc1-c1cccc(F)c1)N1CCC(O)(Cn2cnn3cccc3c2=O)CC1", "note": "[Compound I-4, 3-((1-(3′-fluoro-[1,1′-biphenyl]-2-carbonyl)-4-hydroxypiperidin-4-yl)methyl)pyrrolo[2,1-f][1,2,4]triazin-4(3H)-one]", "IC50": "> 10"}, {"compound": "O=C(c1cccc(-c2ccc3c(c2)OCO3)c1)N1CCC(O)(Cn2cnn3cccc3c2=O)CC1", "note": "[Compound I-5, 3-((1-(3-(benzo[d][1,3]dioxol-5-yl)benzoyl)-4-hydroxypiperidin-4-yl)methyl)pyrrolo[2,1-f][1,2,4]triazin-4(3H)-one]", "IC50": "1 to 10"}, {"compound": "Cc1ccccc1-c1cccc(C(=O)N2CCC(O)(Cn3cnn4cccc4c3=O)CC2)c1", "note": "[Compound I-6, 3-((4-hydroxy-1-(2′-methyl-[1,1′-biphenyl]-3-carbonyl)piperidin-4-yl)methyl)pyrrolo[2,1-f][1,2,4]triazin-4(3H)-one]", "IC50": "1 to 10"}, {"compound": "Cc1ccc(-c2cccc(C(=O)N3CCC(O)(Cn4cnn5cccc5c4=O)CC3)c2)cc1", "note": "[Compound I-7, 3-((4-hydroxy-1-(4′-methyl-[1,1′-biphenyl]-3-carbonyl)piperidin-4-yl)methyl)pyrrolo[2,1-f][1,2,4]triazin-4(3H)-one]", "IC50": "1 to 10"}, {"compound": "COc1ccc(-c2cccc(C(=O)N3CCC(O)(Cn4cnn5cccc5c4=O)CC3)c2)cc1", "note": "[Compound I-8, 3-((4-hydroxy-1-(4′-methoxy-[1,1′-biphenyl]-3-carbonyl)piperidin-4-yl)methyl)pyrrolo[2,1-f][1,2,4]triazin-4(3H)-one]", "IC50": "1 to 10"}, {"compound": "Cc1cc(-c2cccc(C(=O)N3CCC(O)(Cn4cnn5cccc5c4=O)CC3)c2)ccc1F", "note": "[Compound I-9, 3-((1-(4′-fluoro-3′-methyl-[1,1′-biphenyl]-3-carbonyl)-4-hydroxypiperidin-4-yl)methyl)pyrrolo[2,1-f][1,2,4]triazin-4(3H)-one]", "IC50": "> 10"}, {"compound": "COc1cccc(-c2cccc(C(=O)N3CCC(O)(Cn4cnn5cccc5c4=O)CC3)c2)c1", "note": "[Compound I-10, 3-((4-hydroxy-1-(3′-methoxy-[1,1′-biphenyl]-3-carbonyl)piperidin-4-yl)methyl)pyrrolo[2,1-f][1,2,4]triazin-4(3H)-one]", "IC50": "> 10"}, {"compound": "O=C(c1cccc(-c2ccccc2)c1)N1CCC(O)(Cn2cnn3cccc3c2=O)CC1", "note": "[Compound I-11, 3-((1-([1,1′-biphenyl]-3-carbonyl)-4-hydroxypiperidin-4-yl)methyl)pyrrolo[2,1-f][1,2,4]triazin-4(3H)-one]", "IC50": "1 to 10"}, {"compound": "O=C(c1cccc(-c2ccc(Cl)cc2)c1)N1CCC(O)(Cn2cnn3cccc3c2=O)CC1", "note": "[Compound I-12, 3-((1-(4′-chloro-[1,1′-biphenyl]-3-carbonyl)-4-hydroxypiperidin-4-yl)methyl)pyrrolo[2,1-f][1,2,4]triazin-4(3H)-one]", "IC50": "1 to 10"}, {"compound": "O=C(c1cccc(-c2cccc(Cl)c2)c1)N1CCC(O)(Cn2cnn3cccc3c2=O)CC1", "note": "[Compound I-13, 3-((1-(3′-chloro-[1,1′-biphenyl]-3-carbonyl)-4-hydroxypiperidin-4-yl)methyl)pyrrolo[2,1-f][1,2,4]triazin-4(3H)-one]", "IC50": "1 to 10"}, {"compound": "CC(C)c1ccc(-c2cccc(C(=O)N3CCC(O)(Cn4cnn5cccc5c4=O)CC3)c2)cc1", "note": "[Compound I-14, 3-((4-hydroxy-1-(4′-isopropyl-[1,1′-biphenyl]-3-carbonyl)piperidin-4-yl)methyl)pyrrolo[2,1-f][1,2,4]triazin-4(3H)-one]", "IC50": "> 10"}, {"compound": "O=C(c1cccc(-c2ccc(C(F)(F)F)cc2)c1)N1CCC(O)(Cn2cnn3cccc3c2=O)CC1", "note": "[Compound I-15, 3-((4-hydroxy-1-(4′-(trifluoromethyl)-[1,1′-biphenyl]-3-carbonyl)piperidin-4-yl)methyl)pyrrolo[2,1-f][1,2,4]triazin-4(3H)-one]", "IC50": "> 10"}, {"compound": "NC(=O)c1ccc(-c2cccc(C(=O)N3CCC(O)(Cn4cnn5cccc5c4=O)CC3)c2)cc1", "note": "[Compound I-16, 3′-(4-hydroxy-4-((4-oxopyrrolo[2,1-f][1,2,4]triazin-3(4H)-yl)methyl)piperidine-1-carbonyl)-[1,1′-biphenyl]-4-carboxamide]", "IC50": "1 to 10"}, {"compound": "Cc1ccc(-c2cccc(C(=O)N3CCC(O)(Cn4cnn5cccc5c4=O)CC3)c2)cc1C", "note": "[Compound I-17, 3-((1-(3′,4′-dimethyl-[1,1′-biphenyl]-3-carbonyl)-4-hydroxypiperidin-4-yl)methyl)pyrrolo[2,1-f][1,2,4]triazin-4(3H)-one]", "IC50": "> 10"}, {"compound": "N#Cc1ccccc1-c1cccc(C(=O)N2CCC(O)(Cn3cnn4cccc4c3=O)CC2)c1", "note": "[Compound I-18, 3′-(4-hydroxy-4-((4-oxopyrrolo[2,1-f][1,2,4]triazin-3(4H)-yl)methyl)piperidine-1-carbonyl)-[1,1′-biphenyl]-2-carbonitrile]", "IC50": "> 10"}, {"compound": "N#Cc1ccc(-c2cccc(C(=O)N3CCC(O)(Cn4cnn5cccc5c4=O)CC3)c2)cc1", "note": "[Compound I-19, 3′-(4-hydroxy-4-((4-oxopyrrolo[2,1-f][1,2,4]triazin-3(4H)-yl)methyl)piperidine-1-carbonyl)-[1,1′-biphenyl]-4-carbonitrile]", "IC50": "> 10"}, {"compound": "Cc1ccc(-c2cccc(C(=O)N3CCC(O)(Cn4cnn5cccc5c4=O)CC3)c2)s1", "note": "[Compound I-20, 3-((4-hydroxy-1-(3-(5-methylthiophen-2-yl)benzoyl)piperidin-4-yl)methyl)pyrrolo[2,1-f][1,2,4]triazin-4(3H)-one]", "IC50": "> 10"}, {"compound": "O=C(c1cccc(-c2ccc3ncccc3c2)c1)N1CCC(O)(Cn2cnn3cccc3c2=O)CC1", "note": "[Compound I-21, 3-((4-hydroxy-1-(3-(quinolin-6-yl)benzoyl)piperidin-4-yl)methyl)pyrrolo[2,1-f][1,2,4]triazin-4(3H)-one]", "IC50": "1 to 10"}, {"compound": "O=C(c1cccc(-c2ccc3nccn3c2)c1)N1CCC(O)(Cn2cnn3cccc3c2=O)CC1", "note": "[Compound I-22, 3-((4-hydroxy-1-(3-(imidazo[1,2-a]pyridin-6-yl)benzoyl)piperidin-4-yl)methyl)pyrrolo[2,1-f][1,2,4]triazin-4(3H)-one]", "IC50": "> 10"}, {"compound": "O=C(c1cccc(-c2ccc3scnc3c2)c1)N1CCC(O)(Cn2cnn3cccc3c2=O)CC1", "note": "[Compound I-23, 3-((1-(3-(benzo[d]thiazol-5-yl)benzoyl)-4-hydroxypiperidin-4-yl)methyl)pyrrolo[2,1-f][1,2,4]triazin-4(3H)-one]", "IC50": "1 to 10"}, {"compound": "Cc1ccc2[nH]ncc2c1-c1cccc(C(=O)N2CCC(O)(Cn3cnn4cccc4c3=O)CC2)c1", "note": "[Compound I-24, 3-((4-hydroxy-1-(3-(5-methyl-1H-indazol-4-yl)benzoyl)piperidin-4-yl)methyl)pyrrolo[2,1-f][1,2,4]triazin-4(3H)-one]", "IC50": "1 to 10"}, {"compound": "Cn1c(-c2cccc(C(=O)N3CCC(O)(Cn4cnn5cccc5c4=O)CC3)c2)cc2ccccc21", "note": "[Compound I-25, 3-((4-hydroxy-1-(3-(1-methyl-1H-indol-2-yl)benzoyl)piperidin-4-yl)methyl)pyrrolo[2,1-f][1,2,4]triazin-4(3H)-one]", "IC50": "0.2 to 1"}, {"compound": "O=C(NC1CCCC1)c1cccc(-c2cccc(C(=O)N3CCC(O)(Cn4cnn5cccc5c4=O)CC3)c2)c1", "note": "[Compound I-26, N-cyclopentyl-3′-(4-hydroxy-4-((4-oxopyrrolo[2,1-f][1,2,4]triazin-3(4H)-yl)methyl)piperidine-1-carbonyl)-[1,1′-biphenyl]-3-carboxamide]", "IC50": "> 10"}, {"compound": "O=C(c1cccc(-c2cccs2)c1)N1CCC(O)(Cn2cnn3cccc3c2=O)CC1", "note": "[Compound I-27, 3-((4-hydroxy-1-(3-(thiophen-2-yl)benzoyl)piperidin-4-yl)methyl)pyrrolo[2,1-f][1,2,4]triazin-4(3H)-one]", "IC50": "> 10"}, {"compound": "O=C(c1cccc(-c2ccsc2)c1)N1CCC(O)(Cn2cnn3cccc3c2=O)CC1", "note": "[Compound I-28, 3-((4-hydroxy-1-(3-(thiophen-3-yl)benzoyl)piperidin-4-yl)methyl)pyrrolo[2,1-f][1,2,4]triazin-4(3H)-one]", "IC50": "> 10"}, {"compound": "O=C(c1cccc(-c2ccccc2F)c1)N1CCC(O)(Cn2cnn3cccc3c2=O)CC1", "note": "[Compound I-29, 3-((1-(2′-fluoro-[1,1′-biphenyl]-3-carbonyl)-4-hydroxypiperidin-4-yl)methyl)pyrrolo[2,1-f][1,2,4]triazin-4(3H)-one]", "IC50": "1 to 10"}]}]}
